Patent publication US10894807B2 (Siemens Medical Solutions USA, Inc., priority 2011, dated 2021)
Where two headings read alike, the source gives them in different places.

Target: human PSMA (Homo sapiens (Human), UniProt Q04609)
Test: Enzymatic assay for in vitro evaluation of PSMA inhibitors (fluorescent assay of PSMA activity, NAAG substrate, OPA detection of glutamate)
Type: biochemical

Chain of human PSMA (Q04609 whole entry): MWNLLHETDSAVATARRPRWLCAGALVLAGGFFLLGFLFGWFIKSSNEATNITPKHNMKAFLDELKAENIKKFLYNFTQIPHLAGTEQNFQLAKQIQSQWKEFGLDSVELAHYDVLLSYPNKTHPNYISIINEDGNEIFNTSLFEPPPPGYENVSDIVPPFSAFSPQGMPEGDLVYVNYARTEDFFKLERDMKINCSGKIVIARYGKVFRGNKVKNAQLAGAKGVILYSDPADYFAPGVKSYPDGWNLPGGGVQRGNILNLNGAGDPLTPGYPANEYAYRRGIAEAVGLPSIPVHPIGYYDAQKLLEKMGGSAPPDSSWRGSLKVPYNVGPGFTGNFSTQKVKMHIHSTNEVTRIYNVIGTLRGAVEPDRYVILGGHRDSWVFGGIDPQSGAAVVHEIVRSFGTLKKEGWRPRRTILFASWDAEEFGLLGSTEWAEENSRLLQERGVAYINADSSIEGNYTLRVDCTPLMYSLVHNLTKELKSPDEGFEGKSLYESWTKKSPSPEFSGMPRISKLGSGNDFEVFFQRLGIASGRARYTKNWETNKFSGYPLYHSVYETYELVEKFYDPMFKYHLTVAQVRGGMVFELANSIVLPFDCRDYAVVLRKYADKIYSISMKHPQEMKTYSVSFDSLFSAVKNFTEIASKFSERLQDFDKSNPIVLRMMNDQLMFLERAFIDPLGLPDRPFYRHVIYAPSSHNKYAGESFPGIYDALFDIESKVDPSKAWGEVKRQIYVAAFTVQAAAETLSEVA

| Structure (SMILES) | PSMA Blkg % (10 μM) (compound at 10 μM) [%] | PSMA Blkg % (10 μM) [%] | other results |
| --- | --- | --- | --- |
| CN(C(=O)[C@H](CC(=O)O)NC(=O)COCCNC(=O)c1ccc(F)cc1)[C@@H](CCC(=O)O)C(=O)O [P174, (S)-2-((S)-3-Carboxy-2-(2-(2-(4-fluorobenzamido)ethoxy)acetamido)-N-methylpropanamido)pentanedioic Acid] | 1 |  |  |
| CN(C(=O)N[C@@H](CCC(=O)O)C(=O)O)[C@@H](CCCCNC(=O)NCc1ccccc1)C(=O)O [P175, (9S,13S)-10-Methyl-3,11-dioxo-1-phenyl-2,4,10,12-tetraazapentadecane-9,13,15-tricarboxylic Acid] | 18 |  |  |
| CN(C(=O)N[C@@H](CCC(=O)O)C(=O)O)[C@@H](CCCCNC(=O)OCc1ccc([N+](=O)[O-])cc1)C(=O)O [P176, (9S,13S)-10-Methyl-1-(4-nitrophenyl)-3,11-dioxo-2-oxa-4,10,12-triazapentadecane-9,13,15-tricarboxylic Acid] | 77 |  |  |
| Cc1ccc(S(=O)(=O)NCCCC[C@@H](C(=O)O)N(C)C(=O)N[C@@H](CCC(=O)O)C(=O)O)cc1 [P177, (S)-2-(3-((S)-1-Carboxy-5-(4-methylphenylsulfonamido)pentyl)-3-methylureido)pentanedioic Acid] | 38 |  |  |
| O=C(O)CC[C@H](NS(=O)(=O)NC(=O)OCc1ccccc1)C(=O)O [P178, (S)-2-((N-((Benzyloxy)carbonyl)sulfamoyl)amino)pentanedioic Acid] | 1 |  |  |
| O=C(O)CC[C@@H](C(=O)O)N(O)S(=O)(=O)NC(=O)OCc1ccccc1 [P179, (S)-2-((N-((Benzyloxy)carbonyl)sulfamoyl)(hydroxy)amino)pentanedioic Acid] | 4 |  |  |
| NS(=O)(=O)N(OC(=O)OCc1ccccc1)[C@@H](CCC(=O)O)C(=O)O [P180] | 5 |  |  |
| [N-]=[N+]=Nc1ccc(CCCC(=O)NS(=O)(=O)N[C@@H](CCC(=O)O)C(=O)O)cc1 [P181, (S)-2-((N-(4-(4-Azidophenyl)butanoyl)sulfamoyl)amino)pentanedioic Acid] | 39 |  |  |
| O=C(O)CC[C@H](NC(=O)N(O)[C@@H](CCCCNC(=O)c1ccc(F)nc1)C(=O)O)C(=O)O [P182, (S)-2-(3-((S)-1-Carboxy-5-(6-fluoronicotinamido)pentyl)-3-hydroxyureido)pentanedioic Acid] | 92 |  |  |
| [N-]=[N+]=NCCCCC(=O)NS(=O)(=O)N[C@@H](CCC(=O)O)C(=O)O [P183, (S)-2-((N-(5-Azidopentanoyl)sulfamoyl)amino)pentanedioic Acid] | 36 |  |  |
| CN(C(=O)N[C@@H](CCC(=O)O)C(=O)O)[C@@H](CCCCNCc1ccc(F)cc1)C(=O)O [P184, (S)-2-(3-((S)-1-Carboxy-5-(4-fluorobenzylamino)pentyl)-3-methylureido)pentanedioic Acid] | 10 |  |  |
| CC(=O)Oc1ccc2c(c1)Oc1cc(OC(C)=O)ccc1C21OC(=O)c2ccc(C(=O)NCCCC[C@H](NC(=O)N[C@@H](CCC(=O)O)C(=O)O)C(=O)O)cc21 [P185, (S)-2-(3-((S)-1-Carboxy-5-(3′,6′-diacetoxy-3-oxo-3H-spiro[isobenzofuran-1,9′-xanthen]-6-ylcarboxamido)pentyl)ureido)pentanedioic Acid] |  |  | PSMA Blkg % (10 μM): 99% |
| CC(F)C(=O)Nc1ccc(C(=O)NCCCC[C@H](NC(=O)N(O)[C@@H](CCC(=O)O)C(=O)O)C(=O)O)cc1 (stereo partly drawn) [P186, (S)-2-(3-((S)-1-Carboxy-5-(4-(2-fluoropropanamido)benzamido)pentyl)-1-hydroxyureido)pentanedioic Acid] | 85 |  |  |
| O=C(O)CC[C@H](NC(=O)N[C@@H](CCCCn1cc(CCCF)nn1)C(=O)O)C(=O)O [P188, (S)-2-(3-((S)-1-Carboxy-5-(4-(3-fluoropropyl)-1H-1,2,3-triazol-1-yl)pentyl)ureido)-pentanedioic Acid] | 99 |  | Ki: 6.6 nM |
| O=C(O)C(Cn1cc(CCCF)nn1)CP(=O)(O)O (stereo not drawn) [P189, 3-(4-(3-Fluoropropyl)-1H-1,2,3-triazol-1-yl)-2-(phosphonomethyl)propanoic Acid] |  |  | Ki: > 688 nM |
| O=C(O)C(Cn1ccnn1)CP(=O)(O)O (stereo not drawn) [P190, 2-((1H-1,2,3-Triazol-1-yl)methyl)-3-phosphonopropanoic Acid] |  |  | Ki: 188 nM |
| CN(C(=O)N[C@@H](CCC(=O)O)C(=O)O)[C@@H](Cc1ccc(NC(=O)CCCn2cc(CCCF)nn2)cc1)C(=O)O [P191, (S)-2-(3-((S)-1-Carboxy-2-(4-(4-(4-(3-fluoropropyl)-1H-1,2,3-triazol-1-yl)-butanamido)phenyl)-ethyl)-3-methylureido)pentanedioic Acid] |  | 78 |  |
| O=C(O)Cn1cc(C[C@H](NC(=O)N[C@@H](CCCCNC(=O)OCc2ccccc2)C(=O)O)C(=O)O)nn1 [P192, (9S,13S)-9-Carboxy-13-((1-(carboxymethyl)-1H-1,2,3-triazol-4-yl)methyl)-3,11-dioxo-1-phenyl-2-oxa-4,10,12-triazatetradecan-14-oic Acid] |  | 29 |  |
| O=C(O)CCC(CP(=O)(O)OCCOCCOCCOCCn1cc(CCCF)nn1)C(=O)O (stereo not drawn) [P193, 2-(((2-(2-(2-(2-(4-(3-Fluoropropyl)-1H-1,2,3-triazol-1-yl)ethoxy)ethoxy)ethoxy)ethoxy)(hydroxy)phosphoryl)methyl)pentanedioic Acid] |  | 0 |  |
| O=C(O)CC[C@H](NC(=O)N[C@@H](CCCCNC(=O)[C@H]1O[C@@H](CNC(=O)CCc2ccc(-n3cc(CCCF)nn3)cc2)[C@H](O)[C@@H](O)[C@H]1O)C(=O)O)C(=O)O [P194, (S)-2-(3-((S)-1-Carboxy-5-((2S,3R,4R,5R,6S)-6-((3-(4-(4-(3-fluoropropyl)-1H-1,2,3-triazol-1-yl)phenyl)propanamido)methyl)-3,4,5-trihydroxytetrahydro-2H-pyran-2-carboxamido)pentyl)ureido)pentanedioic Acid] |  | 96 | Ki: 69 nM |
| O=C(O)CC[C@H](NC(=O)N[C@@H](Cc1ccc(OCCn2cc(CCCF)nn2)cc1)C(=O)O)C(=O)O [P195, (S)-2-(3-((S)-1-Carboxy-2-(4-(2-(4-(3-fluoropropyl)-1H-1,2,3-triazol-1-yl)ethoxy)phenyl)ethyl)ureido)pentanedioic Acid] |  | 96 | Ki: 66 nM |
| CC(=O)N(CCF)CC(CP(=O)(O)O)C(=O)O.O=C(O)C(F)(F)F (stereo not drawn) [P196, 3-(N-(2-Fluoroethyl)acetamido)-2-(phosphonomethyl)propanoic Acid] |  | 27 |  |
| O=C(O)CCC(CP(=O)(O)NCCc1ccccc1)C(=O)O (stereo not drawn) [P197, 2-((Hydroxy(phenethylamino)phosphoryl)methyl)pentanedioic Acid] |  | 22 | Ki: > 3000 nM |
| O=C(O)CCC(Nc1c(NC(CCC(=O)O)C(=O)O)c(=O)c1=O)C(=O)O (stereo not drawn) [P198, 2,2′-[(3,4-Dioxocyclobut-1-ene-1,2-diyl)bis(azanediyl)]dipentanedioic Acid] |  | 14 |  |
| O=C(O)CC[C@H](NC(=O)C[C@@H](NC(=O)OCC1c2ccccc2-c2ccccc21)C(=O)O)C(=O)O [P199, (S)-2-[(R)-((((9H-Fluoren-9-yl)methoxy)carbonyl)amino)-3-carboxypropanamido]pentanedioic Acid] |  | 82 | Ki: > 188 nM |
